# Experimental data reported in the supplement of paper PMC10307832.
# Assays:
# Experiment in all cases: relative viability (nuclei count vs DMSO), 5 days (fraction); higher = more cells survive
# [1] = system: NCI-H1299
# Method in brief: (§1)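 Relative viability was taken as the ratio of nuclei in treated wells to nuclei in vehicle wells. Lung cancer cell lines in 1536-well plates received compounds by pin tool one day after seeding, either one drug alone or a fixed anchor-drug dose plus five library-drug doses (not always all listed) in √10 steps. Nuclei were counted on 4× images after 5 days of treatment, and values are medians of duplicate plates.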
# [2] = system: A549
# Method in brief: as §1
# [3] = system: NCI-H520
# Method in brief: as §1
# [4] = system: IA-LM
# Method in brief: as §1
# [5] = system: Calu-6
# Method in brief: as §1
# [6] = system: NCI-H1703
# Method in brief: as §1
# [7] = system: EBC-1
# Method in brief: as §1
SMILES,relative viability ([1]; first compound 0.01 µM),relative viability ([1]; first compound 0.03162 µM),relative viability ([1]; first compound 0.3162 µM),relative viability ([2]; first compound 0.01 µM),relative viability ([2]; first compound 0.03162 µM),relative viability ([2]; first compound 0.3162 µM),relative viability ([3]; first compound 0.01 µM),relative viability ([3]; first compound 0.03162 µM),relative viability ([3]; first compound 0.3162 µM),relative viability ([4]; first compound 0.01 µM),relative viability ([4]; first compound 0.03162 µM),relative viability ([4]; first compound 0.3162 µM),relative viability ([5]; first compound 0.03162 µM),relative viability ([5]; first compound 0.3162 µM),relative viability ([6]; first compound 0.01 µM),relative viability ([6]; first compound 0.03162 µM),relative viability ([6]; first compound 0.3162 µM),relative viability ([7]; first compound 0.03162 µM),relative viability ([7]; first compound 0.3162 µM),relative viability ([5]; first compound 0.01 µM),relative viability ([7]; first compound 0.01 µM)
CC(C)Oc1cc(Nc2nc(N[C@@H](C)c3ccc(F)cn3)ncc2Cl)n[nH]1 [AZ23] + CS(=O)(=O)CCNCc1ccc(-c2ccc3ncnc(Nc4ccc(OCc5cccc(F)c5)c(Cl)c4)c3c2)o1 [Lapatinib] (partner 2 µM),0.977,1.08,1.03,1.16,0.945,1.02,0.842,0.964,0.8,0.872,1.37,0.871,1.25,1.08,0.939,1.16,1.3,0.234,0.194,,
CC(C)Oc1cc(Nc2nc(N[C@@H](C)c3ccc(F)cn3)ncc2Cl)n[nH]1 [AZ23] + CS(=O)(=O)N1CCN(Cc2cc3nc(-c4cccc5[nH]ncc45)nc(N4CCOCC4)c3s2)CC1 [Pictilisib] (partner 1 µM),,0.954,1.13,0.586,0.676,0.416,0.327,0.309,0.304,0.403,0.334,0.419,1.13,0.986,,0.291,0.218,0.397,0.345,0.883,0.312
CC(C)Oc1cc(Nc2nc(N[C@@H](C)c3ccc(F)cn3)ncc2Cl)n[nH]1 [AZ23] + C[C@@H](Oc1cc(-c2cnn(C3CCNCC3)c2)cnc1N)c1c(Cl)ccc(F)c1Cl [Crizotinib] (partner 1 µM),1.06,1.01,1.08,1.08,1.03,0.943,0.869,0.864,0.732,0.919,0.824,0.813,0.987,0.974,0.51,0.761,0.626,0.196,0.185,,
CC(C)Oc1cc(Nc2nc(N[C@@H](C)c3ccc(F)cn3)ncc2Cl)n[nH]1 [AZ23] + C[C@]1(O)C[C@@H](c2nc(-c3ccc4ccc(-c5ccccc5)nc4c3)c3c(N)nccn32)C1 [Linsitinib] (partner 1 µM),0.977,0.99,1.09,0.659,0.572,0.701,1.18,1.04,0.921,0.601,0.386,0.627,1.01,0.953,,0.647,0.592,0.836,1.07,,1.1
CC(C)Oc1cc(Nc2nc(N[C@@H](C)c3ccc(F)cn3)ncc2Cl)n[nH]1 [AZ23] + Cc1nc(NC(=O)N2CCC[C@H]2C(N)=O)sc1-c1ccnc(C(C)(C)C(F)(F)F)c1 [Alpelisib] (partner 2 µM),1.16,1.09,1.23,0.738,0.758,0.716,1.06,0.988,0.752,0.729,0.98,0.943,1.12,1.11,,0.434,0.308,0.869,0.859,,0.826
